According to patent publication US20230069886A1, “AROMATIC SULPHONAMIDES DERIVATIVES THAT INHIBITS PDI A3, THEIR SYNTHESIS AND USE” (Uniwersytet Jagiellonski, priority 2020, published 2023):

Assays:
PDI A3 = biological target: T1, PDI A3 (Homo sapiens, UniProt P30101); test: PDI A3 inhibition, insulin turbidimetric assay; type: biochemical; conditions: 10 ug/ml PDI A3, incubated 60 min at 37° C., turbidity at 650 nm; read-out: Inhibition of PDI A3 (EC 50)
T1 construct: purchased Mybiosource; host or cells: E. coli
T1 sequence (P30101 25-505): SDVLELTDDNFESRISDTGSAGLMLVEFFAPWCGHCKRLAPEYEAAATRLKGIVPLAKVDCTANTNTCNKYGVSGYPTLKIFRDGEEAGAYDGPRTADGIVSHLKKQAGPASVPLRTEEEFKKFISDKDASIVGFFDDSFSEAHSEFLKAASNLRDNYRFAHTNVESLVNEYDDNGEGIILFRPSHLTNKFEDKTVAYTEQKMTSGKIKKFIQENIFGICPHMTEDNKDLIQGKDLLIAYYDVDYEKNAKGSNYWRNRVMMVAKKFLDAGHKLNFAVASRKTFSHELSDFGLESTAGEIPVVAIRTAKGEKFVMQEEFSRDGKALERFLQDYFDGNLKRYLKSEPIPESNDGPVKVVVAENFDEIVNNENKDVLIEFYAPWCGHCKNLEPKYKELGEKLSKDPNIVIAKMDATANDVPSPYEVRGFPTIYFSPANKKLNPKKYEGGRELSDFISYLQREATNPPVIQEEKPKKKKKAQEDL
Procedure: The inhibitory effects compounds of invention on activity of PDIA3 was assess based on the insulin turbidimetric assay. Enzymatic activity of PDIA3 was confirmed by measuring the turbidity increase at 650 nm due to insulin reduction. The assay mixture was prepared by addition 10 ug/ml PDI A3 (E. coli recombinant protein; Mybiosource), […] phosphate buffer (pH7.6), 1 mM EDTA, 0.087 mM DTT and with or without tested compound and was incubated for 60 min, at 37° C. Reaction was started by addition of insulin and DTT. Final concentration of insulin and DTT in assay mixture were 0.15 mMv and 0.174 mMv, respectively. Turbidity was detected at 650 nm against reference samples without PDJs. The measurements were performed at 650 nm using 120-s recordings.

MDA-MB-231 = test: MTT antiproliferative assay, 48 h, MDA-MB-231; type: cell-based, human; conditions: Homo sapiens, MDA-MB-231, 48-hour exposition, read-out: Cytotoxicity, IC50, μM MDA-MB-231
Procedure: (§1) Anticancer activity of compounds of invention, PDI A3-inhibitors has been tested in vitro in classical antiproliferative assay in various cancer cells lines. Monolayer tumor cell lines MDA-MB-231 (human mammary breast adenocarcinoma), MCF-7 (human breast adenocarcinoma, estrogen-positive), HT-1080 (human fibrosarcoma) and Caco-2 (human colon adenocarcinoma) were cultured in standard medium DMEM (Dulbecco's modified Eagle's medium) (“Sigma”) supplemented with 10% foetal bovine serum (“Sigma”). About 2000-4000 cells per well (depending on line nature) were placed in 96-well plates and after 24 h compounds were added to the wells. Untreated cells were used as a control. The plates were incubated for 48 h, 37° C., 5% CO2. The number of surviving cells was determined using 3-(4,5-dimethylthiazol-2-yl)-2,5-diphenyltetrazolinium bromide (MTT). MTT-test: after incubating culture medium was removed and 200 μL fresh medium with 20 μL MTT (2 mg/mL in HBSS) was added in each well of the plate. After incubation (3 hr., 37° C., 5% CO2), the medium with MTT was removed and 200 μL DMSO were added at once to each sample. The samples were tested at 540 nm on Thermo Scientific Multiskan EX microplate photometer. The half-maximal inhibitory concentration (IC50) of each compound was calculated using Graph Pad Prism® 3.0.

MCF-7 = test: MTT antiproliferative assay, 48 h, MCF-7; type: cell-based, human; conditions: Homo sapiens, MCF7, 48-hour exposition, read-out: Cytotoxicity, IC50, μM MCF-7
Procedure: as §1

Cc1ccc(S(=O)(=O)N2CC2C(N)=O)cc1 (stereo not shown) [Compound C-3220, 1-(p-Tolylsulfonyl)aziridine-2-carboxamide]
EC50 (PDI A3): 22 µM

COC(=O)C1CN1S(=O)(=O)c1ccc(C)cc1 (stereo not shown) [Compound C-3161, Methyl 1-(p-tolylsulfonyl)aziridine-2-carboxylate]
EC50 (PDI A3): 27 µM

COC(=O)C1CN1S(=O)(=O)c1ccc([N+](=O)[O-])cc1 (stereo not shown) [Compound C-3212, Methyl 1-(4-nitrophenyl)sulfonylaziridine-2-carboxylate]
EC50 (PDI A3): 32 µM | melting point: 106 to 108 °C

COC(=O)C1CN1S(=O)(=O)c1ccc2cc(N(C)C)ccc2c1 (stereo not shown) [Compound C-3397, Methyl 1-[[6-(dimethylamino)-2-naphthyl]sulfonyl]aziridine-2-carboxylate]
IC50 (MDA-MB-231): 38 ± 2 µM

COC(=O)C1CN1S(=O)(=O)c1cccc(C)c1 (stereo not shown) [Compound C-3303, Methyl 1-(m-tolylsulfonyl)aziridine-2-carboxylate]
EC50 (PDI A3): > 200 µM

CCCCCCc1ccc(S(=O)(=O)N2CC2C(=O)NC)cc1 (stereo not shown) [Compound C-3380, 1-(4-Hexylphenyl)sulfonyl-N-methyl-aziridine-2-carboxamide]
EC50 (PDI A3): 37 µM

CC(C)(C)c1ccc(S(=O)(=O)N2CC2C(N)=O)cc1 (stereo not shown) [Compound C-3591, 1-(4-tert-Butylphenyl)sulfonylaziridine-2-carboxamide]
EC50 (PDI A3): 29 µM

NC(=O)C1CN1S(=O)(=O)c1cccnc1 (stereo not shown) [Compound C-3562, 1-(3-pyridylsulfonyl)aziridine-2-carboxamide]
EC50 (PDI A3): 56 µM | melting point: 147 to 149 °C

CN(C)C(=O)C1CN1S(=O)(=O)c1ccc(N(C)C)c2ccccc12 (stereo not shown) [Compound C-3385, 1-[[4-(Dimethylamino)-1-naphthyl]sulfonyl]-N,N-dimethylaziridine-2-carboxamide]
EC50 (PDI A3): 11.1 µM

CN(C)C(=O)C1CN1S(=O)(=O)c1ccc2cc(N(C)C)ccc2c1 (stereo not shown) [Compound C-3398, 1-[[6-(Dimethylamino)-2-naphthyl]sulfonyl]-N,N-dimethylaziridine-2-carboxamide]
EC50 (PDI A3): 10.5 µM

COC(=O)[C@@H]1CN1S(=O)(=O)c1ccc(C)cc1 (stereo partly drawn) [Compound C-3535, Methyl (2S)-1-(p-tolylsulfonyl)aziridine-2-carboxylate]
EC50 (PDI A3): 6.8 µM

NC(=O)C1CN1S(=O)(=O)c1ccccc1 (stereo not shown) [Compound C-3532, 1-(Benzenesulfonyl)aziridine-2-carboxamide]
EC50 (PDI A3): 9.3 µM

COC(=O)C1CN1S(=O)(=O)c1ccc(F)cc1F (stereo not shown) [Compound C-3353, Methyl 1-(2,4-difluorophenyl)sulfonylaziridine-2-carboxylate]
EC50 (PDI A3): 143 µM

COC(=O)C1CN1S(=O)(=O)c1cccc2ccccc12 (stereo not shown) [Compound C-3311, Methyl 1-(1-naphthylsulfonyl)aziridine-2-carboxylate]
EC50 (PDI A3): 90 µM

CCCCCCc1ccc(S(=O)(=O)N2CC2C(=O)OC)cc1 (stereo not shown) [Compound C-3287, Methyl 1-(4-hexylphenyl)sulfonylaziridine-2-calboxylate]
IC50 (MCF-7): 123 ± 17 µM

CCCCCc1ccc(S(=O)(=O)N2CC2C(=O)OC)cc1 (stereo not shown) [Compound C-3281, Methyl 1-(4-pentylphenyl)sulfonylaziridine-2-carboxylate]
EC50 (PDI A3): > 200 µM

CCCCc1ccc(S(=O)(=O)N2CC2C(C)=O)cc1 (stereo not shown) [Compound C-3272, 1-[1-(4-Butylphenyl)sulfonylaziridin-2-yl]ethanone]
EC50 (PDI A3): 43 µM

COC(=O)[C@H]1CN1S(=O)(=O)c1cccc2cc(N(C)C)ccc12 (stereo partly drawn) [Compound C-3570, Methyl (2R)-1-[[6-(dimethylamino)-1-naphthyl]sulfonyl]aziridine-2-carboxylate]
EC50 (PDI A3): 68.4 µM

CN(C)C(=O)C1CN1S(=O)(=O)c1cccc2cc(N(C)C)ccc12 (stereo not shown) [Compound C-3377, 1-[[6-(Dimethylamino)-1-naphthyl]sulfonyl]-N,N-dimethylaziridine-2-carboxamide]
IC50 (MCF-7): 4.8 ± 0.1 µM | EC50 (PDI A3): 4.3 µM

CN(C)C(=O)C1CN1S(=O)(=O)c1ccc(F)cc1F (stereo not shown) [Compound C-3403, 1-(2,4-Difluorophenyl)sulfonyl-N,N-dimethyl-aziridine-2-carboxamide]
EC50 (PDI A3): 24 µM

CCCCCCc1ccc(S(=O)(=O)N2CC2C(=O)N2CCCC2)cc1 (stereo not shown) [Compound C-3511, [1-(4-Hexylphenyl)sulfonylaziridin-2-yl]-pyrrolidin-1-yl-methanone]
EC50 (PDI A3): 102 µM

CCOC(=O)C1CN1S(=O)(=O)c1ccc(C)cc1 (stereo not shown) [Compound C-3537, Ethyl 1-(p-tolylsulfonyl)aziridine-2-carboxylate]
EC50 (PDI A3): 30 µM

COC(=O)[C@@H]1CN1S(=O)(=O)c1cccc2cc(N(C)C)ccc12 (stereo partly drawn) [Compound C-3548, Methyl (2S)-1-[[6-(dimethylamino)-1-naphthyl]sulfonyl]aziridine-2-carboxylate]
EC50 (PDI A3): 5.3 µM

COC(=O)C1CN1S(=O)(=O)c1ccc2[nH]c(=O)ccc2c1 (stereo not shown) [Compound C-3350, Methyl 1-[(2-oxo-1H-quinolin-6-yl)sulfonyl]aziridine-2-carboxylate]
EC50 (PDI A3): 48 µM | melting point: 139 to 141 °C

CN(C)C(=O)C1CN1S(=O)(=O)c1ccc(N(C)C)cc1 (stereo not shown) [Compound C-3357, 1-[4-(Dimethylamino)phenyl]sulfonyl-N,N-dimethyl-aziridine-2-carboxamide]
EC50 (PDI A3): > 200 µM

CCCCCCCCCCCCc1ccc(S(=O)(=O)N2CC2C(=O)OC)cc1 (stereo not shown) [Compound C-3270, Methyl 1-(4-dodecylphenyl)sulfonylaziridine-2-carboxylate]
EC50 (PDI A3): > 200 µM

COC(=O)C1CN1S(=O)(=O)c1ccc(C(F)(F)F)cc1 (stereo not shown) [Compound C-3256, Methyl 1-[4-(trifluoromethyl)phenyl]sulfonylaziridine-2-carboxylate]
EC50 (PDI A3): > 200 µM

CN(C)C(=O)C1CN1S(=O)(=O)c1ccc(C2CCCCC2)cc1 (stereo not shown) [Compound C-3384, 1-(4-Cyclohexylphenyl)sulfonyl-N,N-dimethyl-aziridine-2-carboxamide]
EC50 (PDI A3): 11.7 µM

Cc1ccc(S(=O)(=O)N2CC2C#N)cc1 (stereo not shown) [Compound C-3314, 1-(p-Tolylsulfonyl)aziridine-2-carbonitrile]
EC50 (PDI A3): 24 µM

NC(=O)C1CN1S(=O)(=O)c1ccc(N)cc1 (stereo not shown) [Compound C-3218, 1-(4-Aminophenyl)sulfonylaziridine-2-carboxamide]
melting point: 139 to 141 °C

COC(=O)C1CN1S(=O)(=O)c1cccc(C(F)(F)F)c1 (stereo not shown) [Compound C-3305, Methyl 1-[3-(trifluoromethyl)phenyl]sulfonylaziridine-2-carboxylate]
EC50 (PDI A3): > 200 µM

CNc1ccc2cc(S(=O)(=O)N3CC3C(=O)OC)ccc2c1Cl (stereo not shown) [Compound C-3393, Methyl 1-[[5-chloro-6-(methylamino)-2-naphthyl]sulfonyl]aziridine-2-carboxylate]
EC50 (PDI A3): 27 µM | melting point: 170 to 172 °C

COC(=O)C1CN1S(=O)(=O)c1ccc2oc(=O)ccc2c1 (stereo not shown) [Compound C-3355, Methyl 1-(2-oxochromen-6-yl)sulfonylaziridine-2-carboxylate]
EC50 (PDI A3): 61 µM | melting point: 42 to 44 °C

CC(=O)C1CN1S(=O)(=O)c1ccc(C)cc1 (stereo not shown) [Compound C-3263, 1-[1-(p-Tolylsulfonyl)aziridin-2-yl]ethanone]
EC50 (PDI A3): 98 µM

COC(=O)C1CN1S(=O)(=O)c1ccc(C)cc1F (stereo not shown) [Compound C-3297, Methyl 1-(2-fluoro-4-methyl-phenyl)sulfonylaziridine-2-carboxylate]
EC50 (PDI A3): > 200 µM

COC(=O)C1CN1S(=O)(=O)c1ccc(C(C)(C)C)cc1 (stereo not shown) [Compound C-3290, Methyl 1-(4-tert-butylphenyl)sulfonylaziridine-2-carboxylate]
IC50 (MCF-7): 29 ± 4 µM

COC(=O)C1CN1S(=O)(=O)c1cccnc1 (stereo not shown) [Compound C-3559, Methyl 1-(3-pyridylsulfonyl)aziridine-2-carboxylate]
EC50 (PDI A3): 18.6 µM
